Test system: NRF2
Test: cDNA PCR analysis of exon skipping / full-size transcript in NFE2L2
Format: cell-based, Human
Details: gRNA individually applied in the CRISPR reaction; NCI-H1703 clone 44-25 cells
Description: After CRISPR reactions, total RNA was prepared, and cDNA synthesized for PCR amplification of the target region from NRF2. PCR-amplified DNA was then analyzed by electrophoresis through a 1% agarose gel for 75 minutes at 80v. DNA was stained with SYBR Safe. Lanes 1 and 10: NEB 2 Log Ladder; Lane 2: Scrambled gRNA; Lane 3: NRF2 3-4 SureKill gRNA 3 alone; Lane 4: NRF2 3-4 SureKill gRNA 12 alone; Lane 5: NRF2 3-4 SureKill gRNA 14 alone; Lane 6: NRF2 3-4 SureKill gRNA 15 alone; Lane 7: NRF2 3-4 SureKill gRNA 21 alone; Lane 8: NRF2 3-4 SureKill gRNA 25 alone; Lane 9: NRF2 3-4 SureKill gRNA 26 alone. On the left side of the image are markers indicating DNA size in bp.
After CRISPR reactions, total RNA was prepared, and cDNA synthesized for PCR amplification of the target region from NRF2. PCR-amplified DNA was then analyzed by electrophoresis through a 1% agarose gel for 75 minutes at 80v. DNA was stained with SYBR Safe. Lane 1: NEB 2 Log Ladder; Lane 2: Scrambled gRNA; Lane 3: R34G gRNA alone; Lane 4: NRF2 3-4 SureKill gRNA 3+R34G gRNA; Lane 5: NRF2 3-4 SureKill gRNA+R34G gRNA; Lane 6: NRF2 3-4 SureKill gRNA 14+R34G gRNA. […]
Transfections were carried out using the Lonza Nuclefector 4d. […] RNPs were complexed at 250:50 pmol for 30 minutes prior to transfection, during which time cells were harvested and counted. […]

Substance: R34G gRNA: guide RNA GATATAGATCTTGGAGTAAG, SEQ ID NO:1, targets NRF2 R34G mutation (listed as DNA, chemistry not given here)
- exon skipping (cDNA analysis): induced some level of exon skipping
